Test system: Peli1 transgenic mice (rtTA-Peli1)
Protocol: Tissues of mice were fixed using 10% neutral buffered formalin to produce paraffin blocks. Sections having a thickness of 3 μm were obtained from the paraffin blocks, and then stained with hematoxylin & eosin (H&E). In the case of immunohistochemistry, staining was performed using an anti-K14 antibody, an anti-Ki67 antibody, an anti-CD31 antibody, and an anti-CD3 antibody, followed by mounting using a mounting medium containing a DAPI reagent. Images of the stained tissue samples were acquired using an AxioCam digital microscope camera and AxioVision image processing software (Carl Zeiss).

CN(Cc1cnc2nc(N)nc(N)c2n1)c1ccc(C(=O)N[C@@H](CCC(=O)O)C(=O)O)cc1 [methotrexate]
thickness of the skin (rtTA-Peli1 mice with psoriasis phenotypes after doxycycline, intraperitoneal injection for a certain period, FIG. 8D): about half of the thickness of the skin was reduced | increase in the thickness of the skin according to the proliferation of epidermal cells (H&E staining) (rtTA-Peli1 mice, doxycycline 12 weeks, after administration of CsA or MTX, FIG. 8B): still observed | phenotypes of parakeratosis, hyperkeratosis, rete ridge, and microabscess (skin layer structure, H&E staining) (rtTA-Peli1 mice, doxycycline 12 weeks, then CsA 6 times a week or MTX 4 times a week intraperitoneally, FIG. 8B): most of the phenotypes of parakeratosis, hyperkeratosis, rete ridge, and microabscess shown in the Peli1 transgenic mice (rtTA-Peli1) disappeared | psoriasis phenotype score (rtTA-Peli1 mice, doxycycline 12 weeks, then intraperitoneal injection for a certain period, scoring per Table 1, FIG. 8C): reduced

— patent US20200396973A1, “PSORIASIS-INDUCED ANIMAL MODEL AND USE THEREOF” (CUROGEN TECHNOLOGY CO., LTD., priority 2016, published 2020)
